The text below walks through data of patent US20110015223A1, “Compounds and methods for treatment of cancer-related anemia” (FibroGen, Inc., priority 2006, published 2011).

Assay [1] concerns human H-460 lung cancer tumor-bearing nude mice. The experiment in a line: Blood parameters in nude mice with subcutaneous H-460 lung tumors (anemia of cancer, Example 1). Format: in vivo. The following applies: M, W, F x 4, subcutaneous H-460 tumors, study endpoint. The source says:
(§1) Immuno-compromised athymic CD-1 nu/nu nude mice males (5-6 weeks old) were used in this study (Charles River Laboratories, Wilmington, Mass.). Animals were maintained in a HEPA-filtered environment during the experimental period. Cages, food, and bedding were autoclaved. Animal diets were obtained from Harlan Teklad (Madison, Wis.).
Compounds of the invention were pre-formulated in an aqueous vehicle consisting of 0.1% (w/w) Polysorbate 80 (JT Baker) and 0.5% (w/w) high viscosity carboxymethyl cellulose sodium (Spectrum) to achieve a final 10 ml/kg dosing (oral gavage).
The human H-460 lung cancer cell line used was obtained from the National Cancer Institute. […] The resulting tumor was maintained in nude mice subcutaneously as tumor stock prior to use. Tumor implantation was performed when the stock tumors were in log phase of growth. […] Necrotic tissues were dissected away and viable tissues were cut into 1-2 mm^2 pieces. Tumor fragments were then transplanted subcutaneously to the right flank of the nude mice.
Treatment (administration of compounds of the present invention) was started when the inoculated tumors reached approximately 100 mm^3, and continued for four weeks.
These include red blood cell counts, hemoglobin, hematocrit, mean corpuscular volume, mean corpuscular hemoglobin, mean corpuscular hemoglobin concentration, red blood cell distribution, reticulocytes, reticulocyte counts, and immature reticulocyte fraction.

Assay [2] has as its system MDA-MB-435-GFP breast tumor-bearing female CD-1 nude mice. The note with it: in words (FIG. 1); 20 mg/kg or 60 mg/kg; 33 days treatment; MDA-MB-435-GFP breast tumors. The method, then:
The effectiveness of methods and compounds of the present invention at treating or preventing the development of anemia of cancer was examined as follows. In this study, experiments were performed essentially as described above in Example 1, with the following modifications. Tumors used in this study were MDA-MB-435-GFP breast tumors, and surgical orthotopic tumor fragment implantation was done directly into breast tissue of female CD-1 nude animals. The number of animals in each group was 15. […] After mean tumor volume in the vehicle control group exceeded 1 cm^3, animals were sacrificed (33 days treatment) and hematocrit was measured.

Assay [3] concerns OVCAR3 tumor-bearing female CB.17 SCID mice. The experiment in a line: Hematocrit in OVCAR3 ovarian tumor-bearing SCID mice (Example 5, FIG. 2). It is filed as in vivo. The following applies: in words (FIG. 2); 60 mg/kg; 29 days treatment. The source says: Tumors used in this study were OVCAR3 ovarian tumors. OVCAR3 tumor fragments (1 mm^3) were implanted subcutaneously into the flanks of female CB.17 SCID mice. The number of animals in each treatment group was 10. […] After 29 days treatment, animals were sacrificed and blood was collected for determination of hematocrit (HCT).

Assay [4] has as its system A549 human lung tumor-bearing nude mice. The experiment in a line: Plasma erythropoietin (EPO) by ELISA in nude mice with subcutaneous A549 lung tumors (Example 2). Format: in vivo. The note with it: for Mean [EPO]: four weeks, plasma 6 hours after final dose; for plasma EPO levels compared to vehicle-treated control animals: in words, Compound A 20 or 60 mg/kg, Compound C 20 mg/kg, Compound D 20 or 60 mg/kg as worded in text.
Source text: as §1
Compounds of the invention were formulated in an aqueous vehicle consisting of 0.1% (w/w) Polysorbate 80 (JT Baker) and 0.5% (w/w) high viscosity carboxymethyl cellulose sodium (Spectrum) to achieve a final 10 ml/kg dosing (oral gavage).
The A549 human lung cancer cell line was used. This cell line has been characterized extensively.
A stock tumor was developed by subcutaneoulsy injecting an A549 cell suspension into stock mice. The resulting tumor was maintained subcutaneously as tumor stock prior to use. Tumor implantation was performed when the stock tumors were in log phase of growth. […] Necrotic tissues were dissected away and viable tissues were cut into 1-2 mm^2 pieces. Tumor fragments were then transplanted subcutaneously to the right flank of the nude mice.
Administration of compounds of the present invention (administered three-times per week) was initiated when the inoculated tumors reached approximately 100 mm^3, and continued for four weeks thereafter.
Plasma was isolated from the animals 6 hours following administration of the final dose of compound. Plasma erythropoietin (EPO) levels were determined by ELISA.
On the technique in general: ELISA stands for enzyme-linked immunosorbent assay.

In assay [5] the test system is H-460-GFP human lung tumor-bearing nude mice (orthotopically xenografted). The experiment in a line: RBC, HGB and HCT in nude mice with orthotopic H-460-GFP lung tumors (Example 3). It is filed as in vivo. The note with it: 20 mg/kg three-times per week; whole blood 6 hours after final dose; orthotopic H-460-GFP tumors; mean +/- SD. Here is the method:
(§2) The effectiveness of administration of compounds of the present invention at preventing the development of anemia of cancer or at treating anemia of cancer in an animal model of cancer was examined. […] Genetically-engineered tumors of GFP-transfected H-460 cells were used in this study. The human H-460 lung cancer cell line used was obtained from the National Cancer Institute. […] Compounds were administered three-times per week
Whole blood was collected from these animals 6 hours following administration of the final dose of compound. Various measurable blood parameters indicative of erythropoiesis and treatment of anemia (red blood cell count, hemoglobin, and hematocrit) were analyzed.

Assay [6] shares this test system. The experiment in a line: Plasma erythropoietin (EPO) by ELISA in nude mice with orthotopic H-460-GFP lung tumors (Example 3). Format: in vivo. The note with it: orthotopic H-460-GFP tumors; for plasma EPO levels compared to vehicle-treated control animals: in words, Compound A 20 or 60 mg/kg, Compounds C, D, E 20 mg/kg. Here is the method: as §2
Plasma was isolated from these animals 6 hours following administration of the final dose of compound. Plasma erythropoietin (EPO) levels were determined by ELISA.

Setting [7] is: 20 mg/kg oral gavage three-times per week.
The mark [8] stands for this setting: 20 mg/kg three-times per week, plasma 6 hours after final dose.

Marks after values point to notes of the source that are not given here.

With `O=C(O)CNC(=O)c1nc(Cl)c2ccccc2c1O` [Cmpd A], in assay [1] (20 mg/kg PO), the “Abs Retic, reticulocyte count” value is recorded as 559; the “HCT, hematocrit” value is recorded as 40.4%; the “HGB, hemoglobin” value is 13.3 g/dL; the “IRF, immature RET fraction” value is 0.63. Moreover, in assay [1] (20 mg/kg PO), the “MCH, mean corpuscular hemoglobin” value was determined as 15.1 pg; the “MCHC, MCH concentration” value was found to be 33.1 g/dL; the “RDW, RBC distribution width” value stood at 21.3%; the “RET, reticulocytes” value is listed as 6.4%. Also, in assay [1] (60 mg/kg PO), the “Abs Retic, reticulocyte count” value is given as 539; the “HCT, hematocrit” value was determined as 39.5%; the “HGB, hemoglobin” value is 13.5 g/dL; the “IRF, immature RET fraction” value is 0.65. In addition, in assay [1] (60 mg/kg PO), the “MCH, mean corpuscular hemoglobin” value amounted to 15.6 pg; the “MCHC, MCH concentration” value is 34.2 g/dL; the “RDW, RBC distribution width” value worked out at 23.6%; the “RET, reticulocytes” value came out at 6.5%. The “hematocrit levels compared to non-treated control animals with cancer” value in assay [2] is given as “increased”. For the same compound, in assay [3], the “hematocrit levels in OVCAR3 tumor-bearing animals” value is on record as “increased”.
`C[C@H](NC(=O)c1ncc2cc(Oc3ccccc3)ccc2c1O)C(=O)O` [Cmpd B, (S)-2-[(4-Hydroxy-7-phenoxy-isoquinoline-3-carbonyl)-amino]-propionic acid]: in assay [1] (6 mg/kg PO), the “Abs Retic, reticulocyte count” value is given as 653; the “HCT, hematocrit” value was 37.7%; the “HGB, hemoglobin” value turned out to be 12.7 g/dL; the “IRF, immature RET fraction” value is reported as 0.64. Further, in assay [1] (6 mg/kg PO), the “MCH, mean corpuscular hemoglobin” value is recorded as 14.6 pg; the “MCHC, MCH concentration” value was determined as 33.8 g/dL; the “MCV, mean corpuscular volume” value was 43.2 fL; the “RBC, red blood cells” value is 8.71e+06 µL⁻¹. In addition, in assay [1] (6 mg/kg PO), the “RDW, RBC distribution width” value is given as 21.4% and the “RET, reticulocytes” value worked out at 7.5%. Also, in assay [1] (20 mg/kg PO), the “Abs Retic, reticulocyte count” value was 552; the “HCT, hematocrit” value was 37.7%; the “HGB, hemoglobin” value was found to be 12.7 g/dL; the “IRF, immature RET fraction” value is listed as 0.56. Further, in assay [1] (20 mg/kg PO), the “MCH, mean corpuscular hemoglobin” value came out at 14.5 pg; the “MCHC, MCH concentration” value is 33.7 g/dL; the “MCV, mean corpuscular volume” value turned out to be 43.0 fL; the “RBC, red blood cells” value came to 8.78e+06 µL⁻¹. In addition, in assay [1] (20 mg/kg PO), the “RDW, RBC distribution width” value is 21.7% and the “RET, reticulocytes” value is recorded as 6.3%.
`COc1ccc(Oc2ccc3c(O)c(C(=O)NCC(=O)O)ncc3c2)cc1` [Cmpd C, {[4-Hydroxy-7-(4-methoxy-phenoxy)-isoquinoline-3-carbonyl]-amino}-acetic acid]: the “Mean [EPO]” value in assay [4] (setting [7]) is 3581* pg/ml. Further, in assay [4], the “plasma EPO levels compared to vehicle-treated control animals” value is “increased”. Moreover, in assay [5], the HCT is on record as 47.2 +/− 5.6%, the HGB stood at 16.3 ± 1.6 g/dL and the RBC was 9.8 +/− 1.1. For the same compound, in assay [1] (20 mg/kg PO), the “Abs Retic, reticulocyte count” value was 457; the “HCT, hematocrit” value was found to be 41.1%; the “HGB, hemoglobin” value stood at 14.0 g/dL; the “IRF, immature RET fraction” value was 0.56. Further, in assay [1] (20 mg/kg PO), the “MCH, mean corpuscular hemoglobin” value was found to be 14.9 pg; the “MCHC, MCH concentration” value amounted to 34.1 g/dL; the “MCV, mean corpuscular volume” value turned out to be 43.8 fL; the “RBC, red blood cells” value was found to be 9.36e+06 µL⁻¹. In assay [1] (20 mg/kg PO), the “RDW, RBC distribution width” value stood at 22.3% and the “RET, reticulocytes” value was 4.9%. Moreover, the “Average [EPO]” value in assay [6] (setting [8]) is 5898 pg/mL. The “plasma EPO levels compared to vehicle-treated control animals” value in assay [6] is recorded as “elevated”.
On to `Cc1nc(C(=O)NCC(=O)O)c(O)c2ccc(Oc3ccccc3)cc12` [Cmpd D, [(4-Hydroxy-1-methyl-7-phenoxy-isoquinoline-3-carbonyl)-amino]-acetic acid], for which the “Mean [EPO]” value in assay [4] (6 mg/kg oral gavage three-times per week) was determined as 455 pg/mL; in assay [4] (setting [7]) it was 489 pg/mL. The “plasma EPO levels compared to vehicle-treated control animals” value is “increased” in assay [4] and “elevated” in assay [6]. Moreover, the HCT in assay [5] is reported as 45.6 +/− 1.8%. The compound further gave an HGB in assay [5] of 15.4 ± 0.6 g/dL. The RBC in assay [5] was 9.3 +/− 0.5. Besides, the “Average [EPO]” value in assay [6] (setting [8]) is 2176 pg/mL. For the same compound, the “hematocrit levels in OVCAR3 tumor-bearing animals” value in assay [3] was “increased”.
Take “rhEPO: recombinant human erythropoietin (EPO)”: the “Average [EPO]” value in assay [6] (rhEPO group, dose not given, plasma) is 215 pg/mL.
